Holding throughout (assay type): cell-based
The target of experiment [1] is T1, human GIP receptor (hGIPR) (Homo sapiens, UniProt P48546).
T1 construct: expressed in transfected cells
T1 sequence (P48546 22-466): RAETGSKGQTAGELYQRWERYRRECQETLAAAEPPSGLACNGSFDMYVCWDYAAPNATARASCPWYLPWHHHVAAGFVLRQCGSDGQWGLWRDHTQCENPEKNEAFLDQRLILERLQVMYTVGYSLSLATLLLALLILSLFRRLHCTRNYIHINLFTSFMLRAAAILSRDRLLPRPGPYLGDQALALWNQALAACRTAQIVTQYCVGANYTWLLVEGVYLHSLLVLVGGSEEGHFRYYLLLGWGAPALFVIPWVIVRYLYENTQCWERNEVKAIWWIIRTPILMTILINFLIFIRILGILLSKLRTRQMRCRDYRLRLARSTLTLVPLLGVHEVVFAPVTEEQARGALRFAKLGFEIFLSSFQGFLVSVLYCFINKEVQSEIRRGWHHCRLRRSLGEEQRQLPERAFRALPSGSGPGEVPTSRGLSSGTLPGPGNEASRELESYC
The experiment in a line: GIP receptor assay, method B (CRE-luciferase reporter, BHK cells, 384-well).

The target of experiment [2] is T2, human amylin receptor (hAMYR3) (Homo sapiens, UniProt O60896+P30988).
T2 construct: host or cells: BHK cells (Hollex-1 line expressing hCTR(a) and CRE-Luc), further transfected with human RAMP3
In words: Amylin receptor assay, method B (CRE-luciferase reporter, BHK cells). Here is the method:
To assess how the activation of the receptors is potentially influenced by the presence of human serum albumin (HSA), the in vitro assays were performed in the absence of HSA and presence of 1% (w/v) HSA.
It is thus possible to measure hAMYR3 activity using a CRE-luciferase reporter gene introduced into Baby Hamster Kidney (BHK) cells co-expressing the hAMYR3.
The cell line was further transfected with human receptor modifying protein 3 (RAMP3) using standard methods.
After centrifugation, the cell pellet was resuspended and diluted to approximately 2.5-4.0×10^6 (2.5E+6 to 4.0E+6) cells/mL in Recovery™ Cell Culture Freezing Medium (Gibco, 12648-010). Cells were aliquoted and stored at −180° C. until use.
The assay buffer consisted of DMEM without phenol red (Gibco, 11880-028) supplemented with 1× GlutaMAX (Gibco, 35050-038), 10 mM HEPES (Gibco, 15630-056) and 1% (w/v) ovalbumin (Sigma, A5503) either with or without 0.1% (v/v) Pluronic F-68 (Gibco, 24040-032) and either with or without HSA (Sigma, A9511).
To perform the assay, hAMYR3 BHK Cre-Luc cells were thawed, washed once in PBS (Gibco 14190-094) and seeded in 40 μL growth medium in a white 384-well culture plate (PerkinElmer/Revvity, 6007688) at a cell density of 4.0×10^3 (4.0E+3) cells/well the day before the experiment. The plate was incubated over night at 37° C. in 5% CO2. […] Serial dilutions were then mixed in a new 96-well plate with equal volume (1:1:1 ratio) of assay buffer and either assay buffer without or with 3% HSA (Sigma, A-9511). Twenty microliters of the solution mix were transferred to the cells which previously were washed once with PBS (Gibco 14190-094). After a short centrifugation, the assay plates were incubated for 3 hours at 37° C. in 5% CO2 and let to equilibrated at room temperature for 10 minutes before the addition of 30 μL steadylite Plus™ PerkinElmer/Revvity, 6066759) per well. Plates were sealed and incubated at room temperature with gentle shaking for 30 minutes while protected from light. Luminescence was detected on a luminescence plate reader e.g., a Synergy 2 (BioTek).

The target of experiment [3] is T3, human GLP-1 receptor (hGLP-1R) (Homo sapiens, UniProt P43220).
T3 construct: expressed in transfected cells
In words: GLP-1 receptor assay, method B (CRE-luciferase reporter, BHK cells, 384-well).
Method: Cells at approximately 80-90% confluence were washed once in PBS (Gibco 14190-094) and loosened from the cell flasks with Versene (Gibco, 15040-033). […] Cells were aliquoted and stored at −180° C. until use.
The assay buffer consisted of DMEM without phenol red (Gibco, 11880-028) supplemented with 1× GlutaMAX (Gibco, 35050-038), 10 mM HEPES (Gibco, 15630-056), 1% (w/v) ovalbumin (Sigma, A5503) and 0.1% (v/v) Pluronic F-68 (Gibco, 24040-032) either with HSA or without HSA (Sigma, A9511).
Serial dilutions were transferred to a 384-well assay plate (PerkinElmer/Revvity, 6007688) and mixed with an equal volume (10 μL) of assay buffer without or with 3% (w/v) HSA (Sigma, A-9511). Frozen stocks of hGLP-1R BHK Cre-Luc cells were thawed in a 37° C. water bath, washed once in PBS (Gibco 14190-094), diluted to 1.5×10^5 (1.5E+5) cells/mL in assay buffer (without HSA) and added (10 μL) to each well of the 384-well assay plate. After a short centrifugation, the assay plates were incubated for 3 hours at 37° C. in 5% CO2 and let to equilibrated at room temperature for 10 minutes before the addition of 30 μL steadylite Plus™ PerkinElmer/Revvity, 6066759) per well. Plates were sealed and incubated at room temperature with gentle shaking for 30 minutes while protected from light. Luminescence was detected on a luminescence plate reader e.g. a Synergy 2 (BioTek).

The mark [4] stands for this setting: hGIPR Potency, 1% HSA, EC50, methods B, in the presence of 1% HSA.
Where [5] appears, read: method B, absence of HSA, read-out: hGIPR Potency, no HSA, EC50.
Where [6] appears, read: hAMYR3 Potency, 1% HSA, EC50, methods B, in the presence of 1% HSA.
The mark [7] stands for this setting: method B, absence of HSA, read-out: hAMYR3 Potency, no HSA, EC50.
Where [8] appears, read: hGLP-1R Potency, 1% HSA, EC50, methods B, in the presence of 1% HSA.
Setting [9] is: method B, absence of HSA, read-out: hGLP-1R Potency, no HSA, EC50.

The results in this text go back to US20260174875A1 (Novo Nordisk A/S, priority 2023, published 2026).

Like-named read-outs stand apart in the source and are kept apart here.

T3 sequence (P43220 24-463): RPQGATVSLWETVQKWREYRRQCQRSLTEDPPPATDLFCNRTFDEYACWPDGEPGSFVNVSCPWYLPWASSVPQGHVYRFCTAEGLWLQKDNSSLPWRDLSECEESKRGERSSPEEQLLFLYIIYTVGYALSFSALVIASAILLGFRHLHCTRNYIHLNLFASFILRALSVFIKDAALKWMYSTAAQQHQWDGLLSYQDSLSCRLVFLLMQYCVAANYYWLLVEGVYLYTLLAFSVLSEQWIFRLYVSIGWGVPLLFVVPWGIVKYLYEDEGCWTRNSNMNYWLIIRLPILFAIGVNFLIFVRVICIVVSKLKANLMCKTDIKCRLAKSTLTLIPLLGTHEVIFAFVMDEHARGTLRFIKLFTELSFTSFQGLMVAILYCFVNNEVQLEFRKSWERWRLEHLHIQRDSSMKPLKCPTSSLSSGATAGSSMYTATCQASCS
T2 sequence (P30988 25-474): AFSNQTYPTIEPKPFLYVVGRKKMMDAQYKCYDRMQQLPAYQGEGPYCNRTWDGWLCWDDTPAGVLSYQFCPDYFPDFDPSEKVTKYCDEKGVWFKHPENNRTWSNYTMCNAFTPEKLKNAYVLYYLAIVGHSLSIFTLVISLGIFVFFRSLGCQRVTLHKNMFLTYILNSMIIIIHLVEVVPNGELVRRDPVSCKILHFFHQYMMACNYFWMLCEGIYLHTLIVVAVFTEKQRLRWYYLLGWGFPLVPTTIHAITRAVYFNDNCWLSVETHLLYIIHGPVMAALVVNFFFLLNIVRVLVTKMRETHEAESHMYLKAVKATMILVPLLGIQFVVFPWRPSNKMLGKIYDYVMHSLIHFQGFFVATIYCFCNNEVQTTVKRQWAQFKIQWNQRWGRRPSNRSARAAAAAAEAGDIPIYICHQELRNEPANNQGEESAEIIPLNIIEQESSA
T2 sequence (O60896 24-148): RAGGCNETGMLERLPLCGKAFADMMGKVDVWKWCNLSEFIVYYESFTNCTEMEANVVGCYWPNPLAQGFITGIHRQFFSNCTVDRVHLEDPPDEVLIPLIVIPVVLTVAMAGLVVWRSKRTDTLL

As for `CC[C@H](C)[C@H](NC(=O)[C@H](CCC(=O)O)NC(=O)[C@H](CCC(=O)O)NC(=O)[C@H](CC(C)C)NC(=O)[C@H](CC(C)C)NC(=O)[C@@H](NC(=O)[C@H](CO)NC(=O)[C@H](Cc1ccc(O)cc1)NC(=O)[C@H](CC(=O)O)NC(=O)[C@H](CO)NC(=O)[C@@H](NC(=O)[C@H](Cc1ccccc1)NC(=O)[C@@H](NC(=O)CNC(=O)[C@H](CCC(=O)O)NC(=O)C(C)(C)NC(=O)[C@@H](N)Cc1ccc(O)cc1)[C@@H](C)O)[C@@H](C)O)[C@@H](C)CC)C(=O)N[C@@H](C)C(=O)N[C@@H](C)C(=O)N[C@@H](CCCNC(=N)N)C(=O)N[C@@H](CCC(=O)O)C(=O)N[C@@H](Cc1ccccc1)C(=O)N[C@H](C(=O)N[C@@H](CCC(=O)O)C(=O)N[C@@H](Cc1c[nH]c2ccccc12)C(=O)N[C@@H](CC(C)C)C(=O)N[C@@H](CC(C)C)C(=O)N[C@@H](C)C(=O)NCC(=O)NCC(=O)N1CCC[C@H]1C(=O)N[C@@H](CO)C(=O)N[C@@H](CO)C(=O)NCC(=O)N[C@@H](C)C(=O)NCC(=O)N[C@@H](C)C(=O)N[C@@H](CO)C(=O)N[C@@H](Cc1c[nH]cn1)C(=O)N[C@@H](CC(C)C)C(=O)N[C@@H](CO)C(=O)N[C@H](C(=O)N[C@@H](C)C(=O)N[C@@H](CCC(N)=O)C(=O)N[C@H](C(=O)N[C@@H](CCC(N)=O)C(=O)N[C@@H](CCCNC(=N)N)C(=O)N[C@@H](CC(C)C)C(=O)N[C@@H](CO)C(=O)N[C@@H](C)C(=O)N[C@@H](CCC(=O)O)C(=O)N[C@@H](CC(C)C)C(=O)N[C@@H](Cc1c[nH]cn1)C(=O)N[C@@H](CCCCNC(=O)COCCOCCNC(=O)COCCOCCNC(=O)CC[C@H](NC(=O)CCCCCCCCCCCCCCCCCCC(=O)O)C(=O)O)C(=O)N[C@@H](CC(C)C)C(=O)N[C@@H](C)C(=O)N[C@H](C(=O)N[C@@H](CCC(=O)O)C(=O)N1CCC[C@H]1C(=O)N[C@@H](CCCNC(=N)N)C(=O)N[C@H](C(=O)N[C@@H](CCC(=O)O)C(=O)N[C@H](C(=O)NCC(=O)N[C@@H](CO)C(=O)NCC(=O)N[C@@H](CO)C(=O)N1CCC[C@H]1C(N)=O)[C@@H](C)O)[C@@H](C)O)[C@@H](C)O)[C@@H](C)O)[C@@H](C)O)[C@@H](C)CC` [Compound 179], the EC50 in experiment [1] (setting [4]) worked out at 0.0255 nM; in experiment [1] (setting [5]), 0.00436 nM; in experiment [2] (setting [6]) it was 1.35 nM; in experiment [2] (setting [7]), 0.01 nM; in experiment [3] (setting [8]), 0.17 nM; in experiment [3] (setting [9]) it was 0.0233 nM.

On to `CC[C@H](C)[C@H](NC(=O)[C@H](CCC(=O)O)NC(=O)[C@H](CCC(=O)O)NC(=O)[C@H](CC(C)C)NC(=O)[C@H](CC(C)C)NC(=O)[C@@H](NC(=O)[C@H](CO)NC(=O)[C@H](Cc1ccc(O)cc1)NC(=O)[C@H](CC(=O)O)NC(=O)[C@H](CO)NC(=O)[C@@H](NC(=O)[C@H](Cc1ccccc1)NC(=O)[C@@H](NC(=O)CNC(=O)[C@H](CCC(=O)O)NC(=O)C(C)(C)NC(=O)[C@@H](N)Cc1ccc(O)cc1)[C@@H](C)O)[C@@H](C)O)[C@@H](C)CC)C(=O)N[C@@H](C)C(=O)N[C@@H](C)C(=O)N[C@@H](CCCNC(=N)N)C(=O)N[C@@H](CCC(=O)O)C(=O)N[C@@H](Cc1ccccc1)C(=O)N[C@H](C(=O)N[C@@H](CCC(=O)O)C(=O)N[C@@H](Cc1c[nH]c2ccccc12)C(=O)N[C@@H](CC(C)C)C(=O)N[C@@H](CC(C)C)C(=O)N[C@@H](C)C(=O)NCC(=O)NCC(=O)N1CCC[C@H]1C(=O)N[C@@H](CO)C(=O)N[C@@H](CO)C(=O)N[C@@H](CCC(=O)O)C(=O)N[C@@H](C)C(=O)NCC(=O)N[C@@H](C)C(=O)N[C@@H](CO)C(=O)N[C@@H](CCC(N)=O)C(=O)N[C@@H](CC(C)C)C(=O)N[C@@H](CO)C(=O)N[C@H](C(=O)N[C@@H](C)C(=O)N[C@@H](CCC(N)=O)C(=O)N[C@H](C(=O)N[C@@H](CCC(N)=O)C(=O)N[C@@H](CCCNC(=N)N)C(=O)N[C@@H](CC(C)C)C(=O)N[C@@H](CO)C(=O)N[C@@H](C)C(=O)N[C@@H](CCC(=O)O)C(=O)N[C@@H](CC(C)C)C(=O)N[C@@H](Cc1c[nH]cn1)C(=O)N[C@@H](CCCCNC(=O)COCCOCCNC(=O)COCCOCCNC(=O)CC[C@H](NC(=O)CCCCCCCCCCCCCCCCCCC(=O)O)C(=O)O)C(=O)N[C@@H](CC(C)C)C(=O)N[C@@H](C)C(=O)N[C@H](C(=O)N[C@@H](CC(C)C)C(=O)N1CCC[C@H]1C(=O)N[C@@H](CCCNC(=N)N)C(=O)N[C@H](C(=O)N[C@@H](CCC(=O)O)C(=O)N[C@H](C(=O)NCC(=O)N[C@@H](CO)C(=O)NCC(=O)N[C@@H](CO)C(=O)N1CCC[C@H]1C(N)=O)[C@@H](C)O)[C@@H](C)O)[C@@H](C)O)[C@@H](C)O)[C@@H](C)O)[C@@H](C)CC` [Compound 181], for which the EC50 in experiment [1] (setting [5]) was determined as 0.00325 nM; in experiment [2] (setting [7]), 0.00846 nM; in experiment [3] (setting [9]) it was 0.0288 nM.

On to `CC[C@H](C)[C@H](NC(=O)[C@H](CCC(=O)O)NC(=O)[C@H](CCC(=O)O)NC(=O)[C@H](CC(C)C)NC(=O)[C@H](CC(C)C)NC(=O)[C@@H](NC(=O)[C@H](CO)NC(=O)[C@H](Cc1ccc(O)cc1)NC(=O)[C@H](CC(=O)O)NC(=O)[C@H](CO)NC(=O)[C@@H](NC(=O)[C@H](Cc1ccccc1)NC(=O)[C@@H](NC(=O)CNC(=O)[C@H](CCC(=O)O)NC(=O)C(C)(C)NC(=O)[C@@H](N)Cc1ccc(O)cc1)[C@@H](C)O)[C@@H](C)O)[C@@H](C)CC)C(=O)N[C@@H](C)C(=O)N[C@@H](C)C(=O)N[C@@H](CCCNC(=N)N)C(=O)N[C@@H](CCC(=O)O)C(=O)N[C@@H](Cc1ccccc1)C(=O)N[C@H](C(=O)N[C@@H](CCC(=O)O)C(=O)N[C@@H](Cc1c[nH]c2ccccc12)C(=O)N[C@@H](CC(C)C)C(=O)N[C@@H](CC(C)C)C(=O)N[C@@H](C)C(=O)NCC(=O)NCC(=O)N1CCC[C@H]1C(=O)N[C@@H](CO)C(=O)N[C@@H](CO)C(=O)NCC(=O)N[C@@H](C)C(=O)NCC(=O)N[C@@H](CCC(=O)O)C(=O)N[C@@H](C)C(=O)N1CCC[C@H]1C(=O)NCC(=O)N[C@@H](CCC(=O)O)C(=O)N[C@@H](C)C(=O)N1CCC[C@H]1C(=O)NCC(=O)N[C@@H](C)C(=O)N[C@@H](CO)C(=O)N[C@@H](Cc1c[nH]cn1)C(=O)N[C@@H](CC(C)C)C(=O)N[C@@H](CO)C(=O)N[C@H](C(=O)N[C@@H](C)C(=O)N[C@@H](CCC(N)=O)C(=O)N[C@H](C(=O)N[C@@H](CCC(N)=O)C(=O)N[C@@H](CCCNC(=N)N)C(=O)N[C@@H](CC(C)C)C(=O)N[C@@H](CO)C(=O)N[C@@H](C)C(=O)N[C@@H](CCC(=O)O)C(=O)N[C@@H](CC(C)C)C(=O)N[C@@H](Cc1c[nH]cn1)C(=O)N[C@@H](CCCCNC(=O)COCCOCCNC(=O)COCCOCCNC(=O)CC[C@H](NC(=O)CCCCCCCCCCCCCCCCCCC(=O)O)C(=O)O)C(=O)N[C@@H](CC(C)C)C(=O)N[C@@H](C)C(=O)N[C@H](C(=O)N[C@@H](CC(C)C)C(=O)N1CCC[C@H]1C(=O)N[C@@H](CCCNC(=N)N)C(=O)N[C@H](C(=O)N[C@@H](CCC(=O)O)C(=O)N[C@H](C(=O)NCC(=O)N[C@@H](CO)C(=O)NCC(=O)N[C@@H](CO)C(=O)N1CCC[C@H]1C(N)=O)[C@@H](C)O)[C@@H](C)O)[C@@H](C)O)[C@@H](C)O)[C@@H](C)O)[C@@H](C)CC` [Compound 189], for which the EC50 in experiment [1] (setting [4]) was 0.00918 nM; in experiment [1] (hGIPR Potency, no HSA, EC50, method B, absence of HSA), 0.00318 nM; in experiment [2] (setting [6]), 1.21 nM; in experiment [2] (hAMYR3 Potency, no HSA, EC50, method B, absence of HSA), 0.0127 nM; in experiment [3] (setting [8]), 0.0819 nM; in experiment [3] (hGLP-1R Potency, no HSA, EC50, method B, absence of HSA), 0.0269 nM.
